Assay results published in paper PMC5877539, “Biochemical and MALDI-TOF Mass Spectrometric Characterization of a Novel Native and Recombinant Cystine Knot Miniprotein from Solanum tuberosum subsp. andigenum cv. Churqueña” (International Journal of Molecular Sciences, 2018).
Non-standard residues stand in square brackets, D forms with d. No end group written: not given here. pGlu = O=C1CC[C@@H](C(=O)O)N1

Assays:
[1] = tested on: calcium channel; conditions: cited from earlier work
[2] = cited from earlier work
Source text: To date, a large number of CKMPs have been identified and isolated from natural sources (i.e., from arthropods, vertebrates, mollusks, fungi, plants, and so on). These molecules belong to more than 34 protein families and are involved in diverse biological functions. In animals, CKMPs are secreted peptides that function as extracellular signaling molecules involved in the regulation of important cellular functions such as cell growth or cell development. In plants, CKMPs are often involved in defense against external pathogens. Typically, the latter group functions as prote ...

[3] = tested on: immobilized CPA; conditions: after binding of the inhibitor to immobilized CPA; cited from earlier work
Source text: For further characterization, the initial heat-treated crude extract, the flow-through (fraction containing the non-retained peptides and proteins), and the elution from the affinity chromatography containing the final purified protein were subjected to MALDI-TOF mass spectrometry. A detailed analysis of the peaks present in the mass spectra for the initial heat-treat ...

[4] = tested on: adenocarcinoma cell; conditions: in vitro, acting as epidermal growth factor (EGF) antagonist; cited from earlier work
Source text: (§1) A number of CKMPs function as potent protease peptide inhibitors (PPIs). Among them, the potato carboxypeptidase inhibitor (PCI) was the first CKMPs to be discovered. […] The first crystal structure of this 39 amino acid plant protease inhibitor was reported in 1980 by Rees and Liscomb. After almost 40 years of intense research in the field of proteases, only a small number of metallocarboxypept ...

[5] = ref 34 (Wang and co-workers, 2006); cited from earlier work
Source text: as §1

[6] = tested on: metallocarboxypeptidases (MCPs); conditions: cited from earlier work
Source text: as §1

[7] = tested on: pancreatic carboxypeptidases A and B (CPA and CPB, respectively); conditions: in vitro, by pancreatic carboxypeptidases A and B; cited from earlier work
Source text: as §1

[8] = tested on: bovine CPA; assay: CPA inhibitory activity after heat treatment (thermal stability); assay type: physicochemical; conditions: crude extract, 100 °C for 60 min; Bradford and CPA inhibition
Experimental: The bCPA inhibitory activity of the crude extract and the heat-treated samples was determined similarly as described above for the determination of the IC50 values. However, in this case a unique concentration of the sample was tested. bCPA inhibitory activity (%) was calculated by using the following equation:(2) Y=(ΔAbs340nm/Δt(min))potato extract/(ΔAbs340nm/Δt(min))control×100
(§2) Aliquots with 1.0 mL of the clarified crude extract (see Section 3.2) where incubated at 60, 70, 85 or 100 °C for 60 min. After incubation the samples were centrifuged at 14,500× g for 90 min at 4 °C to eliminate all thermally denatured proteins. Afterwards, the total protein content and the inhibitory activity of the non-treated crude extract and heat-treated samples were determined.

[9] = MALDI-TOF MS of heat-treated samples (thermal stability); assay type: physicochemical; conditions: crude extract heat-treated 60 min; MALDI-TOF linear positive mode
Experimental: as §2
For MALDI-TOF mass spectrometric analysis, samples from the different purification steps, as well as from the clarified crude extract were mixed with an equal volume of α-cyano-4-hydroxycinnamic acid (hcca) matrix solution. Previously, the samples were desalted by dialysis in 0.022 μm filters. The matrix-sample mixture was spotted onto MT 384 target plate polished steel T F from Bruker Daltonics, and the spots were evaporated to dryness at room temperature. Mass spectra were acquired on a Bruker Daltonics Ultraflextreme MALDI-TOF mass spectrometer (Bruker Daltonics, Billerica, MA, USA) operating in a linear positive mode. PMF analysis was performed for the identification of nchuPCI. In brief, an in situ tryptic digestion of the tris-tricine-SDS-PAGE electrophoresis bands as performed by following a well described protocol. The resultant tryptic peptides were dissolved in 10 μL of 0.1% CF3CO2H (v/v) an analyzed by MALDI-TOF in the presence of hcca matrix. […]

[10] = molecular target: porcine carboxypeptidases B (pCPB); assay: Inhibition kinetic constant (Ki), pCPB, pre-steady-state tight-binding (Morrison) assay; assay type: biochemical; conditions: against pCPB
Experimental: (§3) The inhibitory properties of the purified rchuPCI against bCPA and pCPB were determined and compared with a recombinant version of the canonical PCI. The Ki values were evaluated following a pre-steady-state based protocol, according to the Morrison model for tight-binding inhibitors. […] When compared to the canonical PCI, the Ki values obtained for rchuPCI against bCPA and pCPB were about 2-fold higher than the Ki values obtained for recombinant PCI (rPCI).
(§4) The method for tight binding inhibitors was used for the Ki determination. Inhibitory assays were performed at 25 °C under equilibrium conditions ([E0]/Ki ≤ 10) with a fixed concentration of bCPA or pCPB and substrate (0.1 mM N-(4-methoxyphenylazoformyl)-Phe-OH or 0.1 mM N-(4-methoxyphenylazoformyl)-Arg-OH, respectively) in Tris-HCl buffer (pH 7.5) containing 0.2 M NaCl. Samples were pre-incubated for 15 min at RT before the addition of substrate. Then, the decrease in absorbance was measured at 340 nm in a Victor3 (Perkin Elmer, Boston, MA, USA) plate reader. Ki values were calculated by direct fitting of the fractional activities (vi/v0) to the Morrison equation and assuming a competitive inhibition modality (Equations (3) and (4)). (3) vi/v0=1−([E]T+[I]T+Kiapp)−([E]T+[I]T+Kiapp)^2−4[E]T[I]T/2[E]T (4) Ki=Kiapp/([S0/KM])+1 […]

[11] = molecular target: bovine carboxypeptidases A (bCPA); assay: Inhibition kinetic constant (Ki), bCPA, pre-steady-state tight-binding (Morrison) assay; assay type: biochemical; conditions: against bCPA
Experimental: as §3, §4

[12] = tested on: bovine CPA; assay: Affinity chromatography on CPA-glyoxyl-agarose (binding to immobilized CPA), MALDI-TOF read-out; conditions: heat-treated extract (100 °C, 60 min); 0.1 M Tris-HCl pH 7.2, 0.2 M NaCl
Experimental: (§5) A 50 mL aliquot of the clarified crude extract (with a protein concentration of (200 μg·mL^−1) was loaded onto a 2.0 mL bovine CPA-glyoxyl-agarose column prepared in house. The affinity resin was prepared in house as described. Before the addition of the crude extract, the affinity resin was previously equilibrated with 10 column volumes (cv) 0.1 M Tris-HCl buffer (pH 7.2) containing 0.2 M NaCl. Then, the column was washed with 5 cv of equilibration buffer. The retained proteins were eluted with two different buffers: (1) HCl solution with pH = 5.0 (2 cv) and (2) […] solution with pH = 3.0 (2 cv). The eluted fractions were adjusted immediately to pH 7.0 by adding NaOH. All the fractions that presented CPA inhibitory activity were pooled and stored at −80 °C until analysis.
(§6) For MALDI-TOF mass spectrometric analysis, samples from the different purification steps, as well as from the clarified crude extract were mixed with an equal volume of α-cyano-4-hydroxycinnamic acid (hcca) matrix solution. Previously, the samples were desalted by dialysis in 0.022 μm filters. The matrix-sample mixture was spotted onto MT 384 target plate polished steel T F from Bruker Daltonics, and the spots were evaporated to dryness at room temperature. […] The resultant tryptic peptides were dissolved in 10 μL of 0.1% CF3CO2H (v/v) an analyzed by MALDI-TOF in the presence of hcca matrix. […]

[13] = tested on: immobilized CPA; assay: C-terminal cleavage by immobilized CPA; set-up: species or system bovine; conditions: affinity chromatography eluate, MALDI-TOF
Experimental: as §5, §6

[14] = molecular target: T1, Carboxypeptidase B from porcine pancreas (porcine, UniProt P09955 111-416); assay: enzyme inhibition kinetics (Morrison equation for tight-binding inhibitors); 25 °C, equilibrium conditions ([E0]/Ki <= 10), fixed bCPA or pCPB, 0.1 mM N-(4-methoxyphenylazoformyl)-Phe-OH (bCPA) or -Arg-OH (pCPB), Tris-HCl pH 7.5, 0.2 M NaCl; pre-incubated 15 min at RT; absorbance at 340 nm; competitive inhibition assumed; conditions: both partners purified
T1 construct: carboxypeptidase B from porcine pancreas; also called pCPB; porcine CPB; source: bought: Sigma-Aldrich (from porcine pancreas)
T1 sequence (looked up): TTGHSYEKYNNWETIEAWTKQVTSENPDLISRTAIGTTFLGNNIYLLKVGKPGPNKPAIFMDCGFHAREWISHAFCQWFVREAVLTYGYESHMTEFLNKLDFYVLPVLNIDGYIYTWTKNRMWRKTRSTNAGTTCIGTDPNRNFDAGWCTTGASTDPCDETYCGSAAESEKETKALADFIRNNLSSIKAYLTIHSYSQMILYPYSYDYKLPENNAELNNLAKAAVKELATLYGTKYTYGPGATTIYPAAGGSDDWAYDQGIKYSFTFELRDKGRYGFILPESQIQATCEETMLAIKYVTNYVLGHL

[15] = molecular target: T2, Carboxypeptidase A from bovine pancreas (bovine, UniProt P00730 111-419); assay: as above; conditions: both partners purified
T2 construct: carboxypeptidase A from bovine pancreas; Free in solution for the Ki determinations; also called bCPA; bovine CPA; source: bought: Sigma-Aldrich (from bovine pancreas)
T2 sequence (looked up): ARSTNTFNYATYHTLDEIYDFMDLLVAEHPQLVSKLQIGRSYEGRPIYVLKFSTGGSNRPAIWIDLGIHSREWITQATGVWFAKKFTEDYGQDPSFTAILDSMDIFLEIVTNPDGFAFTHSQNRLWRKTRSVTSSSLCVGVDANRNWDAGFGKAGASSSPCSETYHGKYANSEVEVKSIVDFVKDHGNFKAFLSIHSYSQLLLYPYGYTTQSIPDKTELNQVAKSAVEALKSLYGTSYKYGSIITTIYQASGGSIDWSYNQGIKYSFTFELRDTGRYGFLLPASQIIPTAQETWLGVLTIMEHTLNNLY

[16] = compared to recombinant PCI (rPCI)

## ω-conotoxin MVIIa
[1]
  Calcium channel block: calcium channel blocker

## kalata B1: CKMP isolated from plants (GLPVCGETCVGGTCNTPGCTCSWPVCTRN; ends and bridges not checked; also: cystine-knot disulfides, pairing not given here; UniProt P56254 89-117, looked up)
[2]
  Antibacterial and/or antifungal activities: antibacterial and/or antifungal activities

## PCI: potato carboxypeptidase inhibitor, 39 amino acid plant protease inhibitor from Solanum tuberosum (QQHADPICNKPCKTHDDCSGAWFCQACWNSARTCGPYVG)
[3]
  C-terminal cleavage by immobilized CPA: a C-terminal glycine residue is usually cleaved by the immobilized CPA
[4]
  Inhibition of adenocarcinoma cell growth: inhibit in vitro adenocarcinoma cell growth
[5]
  Antithrombotic action: can act as an antithrombotic drug
[6]
  Inhibition of metallocarboxypeptidases: inhibits different enzymes within the family of metallocarboxypeptidases
[7]
  Blocking of C-terminal cleavage (and consequent inactivation) of human EGF: blocks the C-terminal cleavage

## [pGlu]RDPDPICNKPCKTHDDCSGAWFCQACWNSARTCGPYVG (disulfide (positions not given here)) [native chuPCI, Churqueña]
[8]
  Temperature stability of CPA inhibitory activity: high temperature stability, even after thermal treatment at 100 °C for 60 min
[9]
  Heat resistance of the 4309 Da peak/miniprotein: heat-resistant molecule

## QRDPDPICNKPCKTHDDCSGAWFCQACWNSARTCGPYVG (disulfide (positions not given here)) [rchuPCI, recombinant product of mature chuPCI (39 amino acids) expressed in E. coli BL21 (DE3)]
[10]
  All Ki values determined (range in words): nanomolar range
[10]; [16]
  Ki values obtained for rchuPCI compared with rPCI (fold higher): about 2 fold
[11]
  All Ki values determined (range in words): nanomolar range
[11]; [16]
  Ki values obtained for rchuPCI compared with rPCI (fold higher): about 2 fold

## [pGlu]RDPDPICNKPCKTHDDCSGAWFCQACWNSARTCGPYVG (disulfide (positions not given here)) [IIIa, full-length chuPCI post-translationally modified with an N-terminal pyroglutamic acid]
[12]
  Retention by immobilized CPA (MALDI-TOF of flow-through vs initial extract): clear fading of the molecular ion intensities
[13]
  C-terminal cleavage by immobilized CPA (mass shift): loss of 57 Da

## -RDPDPICNKPCKTHDDCSGAWFCQACWNSARTCGPYVG (disulfide) [IIa, chuPCI lacking the N-terminal amino acid]
[12]
  Retention by immobilized CPA (MALDI-TOF of flow-through vs initial extract): clear fading of the molecular ion intensities
[13]
  C-terminal cleavage by immobilized CPA (mass shift): loss of 57 Da

## QQHADPICNKPCKTHDDCSGAWFCQACWNSARTCGPYVG (natural protein, Solanum tuberosum subsp. tuberosum, UniProt P01075 1-39, looked up, also called canonical PCI) [recombinant canonical potato carboxypeptidase inhibitor (PCI)]
[14]
  Ki: 0.0107 ± 0.00117 µM
[15]
  Ki: 0.0043 ± 0.00046 µM

B1: recombinant chuPCI (cystine-knot metallocarboxypeptidase inhibitor from Solanum tuberosum subsp. andigenum cv. Churqueña) (natural protein)
chain: QRDPDPICNKPCKTHDDCSGAWFCQACWNSARTCGPYVG
modifications: also: N-terminal Gln partly cyclised to pyroglutamate
notes: mature chuPCI (39 amino acids) of the chuPCI precursor, S. tuberosum subsp. andigenum cv; Churqueña; Cloned in pIN-III-OmpA3 with the OmpA3 signal peptide at the N-terminus for secretion; The mass of the purified protein (4326.3 Da) fits the 39 residues without the signal peptide; Three disulfide bonds (Cys8-Cys24, Cys12-Cys27, Cys18-Cys34); also called rchuPCI; recombinant churqueña PCI; source: …
[14]
  Ki: 0.0198 ± 0.00182 µM
[15]
  Ki: 0.0108 ± 0.00155 µM
